Results from article PMC10796436, “Peptidyl nitroalkene inhibitors of main protease rationalized by computational and crystallographic investigations as antivirals against SARS-CoV-2” (Communications Chemistry, 2024).

Key:
[1] = calibration compound; cited from earlier work
SARS-CoV-2 M^pro [2] = molecular target: T1, SARS-CoV-2 M^pro (Severe acute respiratory syndrome coronavirus 2, UniProt P0DTD1); experiment: biochemical; conditions: M^pro from pMal-M^pro vector
SARS-CoV-2 M^pro [3] = molecular target: T1, SARS-CoV-2 M^pro; experiment: Mpro FRET inhibition, continuous fluorometric assay (Fluorolog-3), enzyme from pET21-M^pro vector; format: biochemical; conditions: read-out: Ki (μM)^b
M^pro = M^pro (Severe acute respiratory syndrome coronavirus 2, UniProt P0DTD1); experiment: biochemical; format: binding

## CCCC(=O)c1ccccc1 [Butyrophenone]
[1]
  Chromatographic Hydrophobicity Index (publication): 88.49

## CC(C)C[C@H](NC(=O)[C@@H](NC(=O)[C@H](C)NC(=O)OC(C)(C)C)C(C)C)C(=O)N[C@H](/C=C/[N+](=O)[O-])CCc1ccccc1 [FGA159]
SARS-CoV-2 M^pro [2]
  Ki: 21.8 ± 1.5 µM
SARS-CoV-2 M^pro [3]
  Ki: 1.19 ± 0.18 µM
M^pro; 5 µM, read-out: DTm (°C)
  ΔTm at 5 µM: 2.6 °C
M^pro; 25 µM, read-out: DTm (°C)
  ΔTm at 25 µM: 2.5 °C
M^pro; concentration range between 5 and 100 μM
  change of Tm of M^pro: 2.5 ± 0.2 °C

## O=C(N[C@@H](Cc1ccccc1)C(=O)N[C@H](/C=C/[N+](=O)[O-])CCc1ccccc1)OCc1ccccc1 [FGA86]
SARS-CoV-2 M^pro [2]; 20 μM
  inhibition at 20 µM: 17%
SARS-CoV-2 M^pro [3]
  Ki: 2.67 ± 0.29 µM
M^pro; 25 µM
  change of Tm of M^pro: 0.9 ± 0.4 °C
M^pro; 25 µM, read-out: DTm (°C)
  ΔTm at 25 µM: 0.9 °C
M^pro; 100 μM
  change of Tm of M^pro: −1.7 ± 0.4 °C

## c1ccc(-c2nnn[nH]2)cc1 [Phenyltetrazole]
[1]
  Chromatographic Hydrophobicity Index (publication): 20.18

## c1ccc2[nH]cnc2c1 [Benzimidazole]
[1]
  Chromatographic Hydrophobicity Index (publication): 30.71

## CCC(=O)c1ccccc1 [Propiophenone]
[1]
  Chromatographic Hydrophobicity Index (publication): 78.41
